Dmax and DC50 data for 13 compounds are collected here from US20250114345A1, “COMPOUNDS AND COMPOSITIONS AS CBP/P300 DEGRADERS AND USES THEREOF” (Oncopia Therapeutics, Inc. d/b/a/ SK Life Science Labs, priority 2023, published 2025).

In this assay the target is T1, p300 (Homo sapiens, UniProt Q09472).
T1 construct: host or cells: A549 P300 HiBit cells
Briefly: P300 degradation, HiBit technology in A549 P300 HiBit cells (2 h). Type of assay: cell-based. To be noted: 2 hrs post treatment; for Dmax: A549, A549 P300 HiBit cells; for DC50: A549 P300 HiBit cells. The method, boiled down: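 A549 cells carrying HiBit-tagged p300 or CBP, seeded overnight at 37 °C/5% CO2, then treated with serial compound dilutions from 10 mM DMSO stocks. Incubation was 2 h for p300 and 24 h for CBP, followed by HiBit lytic detection reagent for 10 min at room temperature. Luminescence read gave degradation potency and Dmax.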
In general terms: HiBiT is a short tag that completes a luciferase, so light tracks the accessible tagged protein.

T1 sequence (Q09472 whole entry): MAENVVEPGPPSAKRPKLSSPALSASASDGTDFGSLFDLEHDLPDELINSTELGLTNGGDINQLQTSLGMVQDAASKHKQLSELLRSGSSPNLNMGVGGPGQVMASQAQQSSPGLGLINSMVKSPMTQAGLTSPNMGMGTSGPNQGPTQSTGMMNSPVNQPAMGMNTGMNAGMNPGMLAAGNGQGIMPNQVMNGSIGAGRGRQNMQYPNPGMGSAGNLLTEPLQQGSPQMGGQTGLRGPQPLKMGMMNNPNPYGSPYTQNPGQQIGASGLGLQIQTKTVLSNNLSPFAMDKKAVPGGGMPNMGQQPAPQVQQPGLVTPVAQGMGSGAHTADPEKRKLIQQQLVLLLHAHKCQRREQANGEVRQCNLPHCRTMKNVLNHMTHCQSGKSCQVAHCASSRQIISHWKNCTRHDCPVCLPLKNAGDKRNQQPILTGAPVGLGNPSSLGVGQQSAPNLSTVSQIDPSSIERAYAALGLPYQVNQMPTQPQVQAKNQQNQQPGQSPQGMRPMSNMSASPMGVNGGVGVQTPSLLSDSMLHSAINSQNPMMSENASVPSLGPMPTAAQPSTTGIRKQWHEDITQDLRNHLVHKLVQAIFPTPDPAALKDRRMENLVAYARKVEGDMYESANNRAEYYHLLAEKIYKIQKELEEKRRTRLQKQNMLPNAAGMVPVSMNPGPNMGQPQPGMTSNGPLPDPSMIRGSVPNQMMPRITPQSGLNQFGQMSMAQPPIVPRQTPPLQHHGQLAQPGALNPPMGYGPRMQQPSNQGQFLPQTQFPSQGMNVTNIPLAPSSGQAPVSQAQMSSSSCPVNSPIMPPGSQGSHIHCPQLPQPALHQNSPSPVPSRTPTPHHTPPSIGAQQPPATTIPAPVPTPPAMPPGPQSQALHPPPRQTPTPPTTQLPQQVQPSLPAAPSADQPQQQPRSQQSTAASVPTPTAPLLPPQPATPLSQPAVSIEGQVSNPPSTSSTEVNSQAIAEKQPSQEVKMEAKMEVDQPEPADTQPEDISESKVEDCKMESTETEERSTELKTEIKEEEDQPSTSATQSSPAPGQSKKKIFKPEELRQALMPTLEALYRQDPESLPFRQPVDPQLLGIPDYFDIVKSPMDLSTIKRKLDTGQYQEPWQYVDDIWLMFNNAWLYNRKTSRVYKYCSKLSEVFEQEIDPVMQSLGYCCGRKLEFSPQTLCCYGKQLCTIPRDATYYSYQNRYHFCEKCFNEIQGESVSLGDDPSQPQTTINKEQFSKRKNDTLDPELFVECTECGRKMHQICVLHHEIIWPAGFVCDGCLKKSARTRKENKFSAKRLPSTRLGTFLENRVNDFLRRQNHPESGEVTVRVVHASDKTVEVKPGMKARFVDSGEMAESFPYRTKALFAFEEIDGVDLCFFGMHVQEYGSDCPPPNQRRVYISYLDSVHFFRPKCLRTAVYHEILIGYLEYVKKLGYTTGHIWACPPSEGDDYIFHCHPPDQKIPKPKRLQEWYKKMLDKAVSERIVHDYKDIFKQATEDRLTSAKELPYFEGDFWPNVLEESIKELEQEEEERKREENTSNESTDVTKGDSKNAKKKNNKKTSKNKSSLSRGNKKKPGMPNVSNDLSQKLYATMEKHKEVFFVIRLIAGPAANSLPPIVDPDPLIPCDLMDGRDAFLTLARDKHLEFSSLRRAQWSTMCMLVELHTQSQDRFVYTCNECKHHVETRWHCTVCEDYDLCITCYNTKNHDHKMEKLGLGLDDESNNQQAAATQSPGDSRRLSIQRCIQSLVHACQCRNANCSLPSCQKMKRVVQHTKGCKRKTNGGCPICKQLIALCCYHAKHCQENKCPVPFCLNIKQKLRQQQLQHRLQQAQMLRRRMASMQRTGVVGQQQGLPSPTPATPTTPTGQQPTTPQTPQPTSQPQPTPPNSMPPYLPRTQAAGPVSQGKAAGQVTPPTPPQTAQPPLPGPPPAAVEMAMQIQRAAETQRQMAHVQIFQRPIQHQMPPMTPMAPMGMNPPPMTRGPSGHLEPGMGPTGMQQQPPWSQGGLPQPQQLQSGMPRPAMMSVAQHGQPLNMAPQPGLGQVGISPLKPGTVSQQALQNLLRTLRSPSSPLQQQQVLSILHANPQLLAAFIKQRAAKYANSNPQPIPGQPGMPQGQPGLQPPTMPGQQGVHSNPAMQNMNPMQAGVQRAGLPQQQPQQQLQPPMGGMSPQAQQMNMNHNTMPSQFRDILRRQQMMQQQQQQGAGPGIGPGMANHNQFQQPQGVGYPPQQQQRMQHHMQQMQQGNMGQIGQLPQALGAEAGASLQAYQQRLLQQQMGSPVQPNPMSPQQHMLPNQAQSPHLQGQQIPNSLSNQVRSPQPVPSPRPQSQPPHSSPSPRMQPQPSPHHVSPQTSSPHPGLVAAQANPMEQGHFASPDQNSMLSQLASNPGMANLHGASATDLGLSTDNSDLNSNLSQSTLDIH

Broadly, the Dmax is the greatest extent of degradation seen. A lower Dmax goes with a partial loss of target. In general, DC50 refers to the concentration at which degradation of the target reaches its halfway point. `Cc1cc(-c2ccc(N(C)c3cc(C(C)C)c4c(c3)n(C)c(=O)n4C)cc2Cl)cnc1C(=O)NCC#Cc1cccc(NC2CCC(=O)NC2=O)c1` (centres unmarked) [Example A44, 5-(2-chloro-4-((7-isopropyl-1,3-dimethyl-2-oxo-2,3-dihydro-1H-benzo[d]imidazol-5-yl)(methyl)amino)phenyl)-N-(3-(3-((2,6-dioxopiperidin-3-yl)amino)phenyl)prop-2-yn-1-yl)-3-methylpicolinamide] registered a Dmax of 60 to 79% and a 50% degradation concentration (DC50) of 100 to 999 nM.
The like results for `Cc1nc2c(N3CCCc4nc(-c5ccc(C(=O)NCC#Cc6ccc7occ(C8CCC(=O)NC8=O)c7c6)nc5)ncc43)cc(C3CCOCC3)cc2n(C)c1=O` (centres unmarked) [Example B78, 5-(5-(1,3-dimethyl-2-oxo-7-(tetrahydro-2H-pyran-4-yl)-1,2-dihydroquinoxalin-5-yl)-5,6,7,8-tetrahydropyrido[3,2-d]pyrimidin-2-yl)-N-(3-(3-(2,6-dioxopiperidin-3-yl)benzofuran-5-yl)prop-2-yn-1-yl)picolinamide] were, in that order, less than 20% and more than 1000 nM.
The like results for `Cc1cc2c(N3CCN(C)c4cc(-c5ccc(C(=O)NCC#Cc6cc7c(C8CCC(=O)NC8=O)cccc7o6)nc5)ncc43)cc(C(C)C)cc2n(C)c1=O` (centres unmarked) [Example B95, N-(3-(4-(2,6-dioxopiperidin-3-yl)benzofuran-2-yl)prop-2-yn-1-yl)-5-(4-(7-isopropyl-1,3-dimethyl-2-oxo-1,2-dihydroquinolin-5-yl)-1-methyl-1,2,3,4-tetrahydropyrido[3,4-b]pyrazin-7-yl)picolinamide] were, in that order, more than 80% and less than 1 nM.
Taken in the same sequence, the figures for `Cc1cc(N2CCN(C)c3nc(-c4ccc(C(=O)NCC#Cc5cc6c(C7CCC(=O)NC7=O)cccc6o5)nc4)ncc32)c2cc(C)c(=O)n(C)c2c1` (centres unmarked) [Example B104, N-(3-(4-(2,6-dioxopiperidin-3-yl)benzofuran-2-yl)prop-2-yn-1-yl)-5-(8-methyl-5-(1,3,7-trimethyl-2-oxo-1,2-dihydroquinolin-5-yl)-5,6,7,8-tetrahydropteridin-2-yl)picolinamide] were more than 80% and 1 to 9.9 nM.
`CCc1cc(N(C)c2ccc(-c3cnc(C(=O)NCC#Cc4cccc(NC5CCC(=O)NC5=O)c4)c(C)c3)c(Cl)c2)c2cc(C)c(=O)n(C)c2c1` (centres unmarked) [Example B11, 5-(2-Chloro-4-((7-ethyl-1,3-dimethyl-2-oxo-1,2-dihydroquinolin-5-yl)(methyl)amino)phenyl)-N-(3-(3-((2,6-dioxopiperidin-3-yl)amino)phenyl)prop-2-yn-1-yl)-3-methylpicolinamide] gave a Dmax of more than 80% and a DC50 of 10 to 99 nM.
Turning to `CC(C)c1nc(N2CCCc3nc(-c4ccc(C(=O)NCC#Cc5ccc6occ(C7CCC(=O)NC7=O)c6c5)nc4)ncc32)cc2c1n(C)c(=O)n2C` (centres unmarked) [Example A76, N-(3-(3-(2,6-dioxopiperidin-3-yl)benzofuran-5-yl)prop-2-yn-1-yl)-5-(5-(4-isopropyl-1,3-dimethyl-2-oxo-2,3-dihydro-1H-imidazo[4,5-c]pyridin-6-yl)-5,6,7,8-tetrahydropyrido[3,2-d]pyrimidin-2-yl)picolinamide], the Dmax is less than 20% and the DC50 is more than 1000 nM.
Taken in the same sequence, the figures for `Cn1c(=O)n(C)c2c(C3CCS(=O)(=O)CC3)nc(-c3cccc4cc(-c5ccc(C(=O)NCC#Cc6ccc7occ(C8CCC(=O)NC8=O)c7c6)nc5)ncc34)cc21` (centres unmarked) [Example A123, 5-(8-(4-(1,1-dioxido-tetrahydro-2H-thiopyran-4-yl)-1,3-dimethyl-2-oxo-2,3-dihydro-1H-imidazo [4,5-c]pyridin-6-yl)isoquinolin-3-yl)-N-(3-(3-(2,6-dioxopiperidin-3-yl)benzofuran-5-yl)prop-2-yn-1-yl)picolinamide] were 60 to 79% and 1 to 9.9 nM.
For the compound `Cc1cc2c(N3CCCc4nc(-c5ccc(C(=O)NCC#Cc6ccc7occ(C8CCC(=O)NC8=O)c7c6)nc5)ncc43)nc(N3CCC(F)CC3)cc2n(C)c1=O` (centres unmarked) [Example B27, N-(3-(3-(2,6-dioxopiperidin-3-yl)benzofuran-5-yl)prop-2-yn-1-yl)-5-(5-(7-(4-fluoro-piperidin-1-yl)-1,3-dimethyl-2-oxo-1,2-dihydro-1,6-naphthyridin-5-yl)-5,6,7,8-tetrahydropyrido[3,2-d]pyrimidin-2-yl) picolinamide], the Dmax lay within 60 to 79% and the DC50 is 1 to 9.9 nM.
The compound `Cc1cc(-c2ncc(N(C)c3cc(C(C)C)c4c(c3)n(C)c(=O)n4C)cc2F)cnc1C(=O)NCC#Cc1cccc(NC2CCC(=O)NC2=O)c1` (centres unmarked) [Example A47, N-(3-(3-((2,6-dioxopiperidin-3-yl)amino)phenyl)prop-2-yn-1-yl)-3-fluoro-5-((7-isopropyl-1,3-dimethyl-2-oxo-2,3-dihydro-1H-benzo [d]imidazol-5-yl)(methyl)amino)-5′-methyl-[2,3′-bipyridine]-6′-carboxamide] showed a Dmax of more than 80% and a DC50 of 10 to 99 nM.
Taken in the same sequence, the figures for `Cc1cc(-c2ncc(N(C)c3cc(C4CCOCC4)cc4c3cc(C)c(=O)n4C)nn2)cnc1C(=O)NCC#Cc1ccc2occ(C3CCC(=O)NC3=O)c2c1` (centres unmarked) [Example B135, 5-(6-((1,3-dimethyl-2-oxo-7-(tetrahydro-2H-pyran-4-yl)-1,2-dihydroquinolin-5-yl) (methyl)amino)-1,2,4-triazin-3-yl)-N-(3-(3-(2,6-dioxopiperidin-3-yl)benzofuran-5-yl)prop-2-yn-1-yl)-3-methylpicolinamide] were less than 20% and more than 1000 nM.
`CCc1cc2c(N3CCCc4nc(-c5ccc(C(=O)NCC#Cc6ccc7occ(C8CCC(=O)NC8=O)c7c6)nc5)ncc43)cc(C3CCOCC3)cc2n(C)c1=O` (centres unmarked) [Example B122, N-(3-(3-(2,6-dioxopiperidin-3-yl)benzofuran-5-yl)prop-2-yn-1-yl)-5-(5-(3-ethyl-1-methyl-2-oxo-7-(tetrahydro-2H-pyran-4-yl)-1,2-dihydroquinolin-5-yl)-5,6,7,8-tetrahydropyrido [3,2-d]pyrimidin-2-yl)picolinamide] yielded a Dmax of less than 20% and a DC50 of more than 1000 nM.
The like results for `Cc1cc2c(N3CCCc4nc(-c5ccc(C(=O)NCC#Cc6ccc7occ(C8CCC(=O)NC8=O)c7c6)nc5)ncc43)nc(N3CC[Si](C)(C)CC3)cc2n(C)c1=O` (centres unmarked) [Example B139, 5-(5-(7-(4,4-dimethyl-1,4-azasilinan-1-yl)-1,3-dimethyl-2-oxo-1,2-dihydro-1,6-naphthyridin-5-yl)-5,6,7,8-tetrahydropyrido[3,2-d]pyrimidin-2-yl)-N-(3-(3-(2,6-dioxopiperidin-3-yl)benzofuran-5-yl)prop-2-yn-1-yl)picolinamide] were, in that order, 60 to 79% and 100 to 999 nM.
The like results for `Cc1cc2c(N3CCCc4nc(-c5ccc(C(=O)NCC#Cc6ccc7occ(C8CCC(=O)NC8=O)c7c6)nc5)ncc43)nc(N(C)C)cc2n(C)c1=O` (centres unmarked) [Example B128, 5-(5-(7-(dimethylamino)-1,3-dimethyl-2-oxo-1,2-dihydro-1,6-naphthyridin-5-yl)-5,6,7,8-tetrahydropyrido[3,2-d]pyrimidin-2-yl)-N-(3-(3-(2,6-dioxopiperidin-3-yl)benzofuran-5-yl)prop-2-yn-1-yl)picolinamide] were, in that order, more than 80% and 1 to 9.9 nM.
